This note sets out measurements from US8282688B2, “Laccase mediators and methods of use” (Danisco US Inc., priority 2006, dated 2012).

What all share (assay type): biochemical
The subject of one experiment is C. unicolor laccase. Nature of the experiment: Bleaching of denim swatches with C. unicolor laccase (Example 4). Set-up: key to ΔL Denim swatch Frontside / Δb Denim swatch Frontside / ΔL Denim swatch Backside / Δb Denim swatch Backside / Δa Denim swatch Backside / Δa Denim swatch Frontside: difference between initial and final CIE L*a*b* values; key to ΔE (total color difference) Denim swatch Backside / ΔE (total color difference) Denim swatch Frontside: ΔE = (ΔL²+Δa²+Δb²)^1/2 from CIE L*a*b* before/after bleaching. The procedure: Denim legs (made out of sulfur bottom/indigo dyed denim fabric from Cone Mill, style number 1662P) were pretreated with IndiAge® 2XL at a dose of 1 gram per liter in a 50 lb lab scale tumbling washer. The liquor ratio was 6 to 1 (5 kg substrate in 30 liters of water) and the treatment was performed at 55° C. at pH 4.5 for 1 hour. A warm rinse followed the cellulase treatment, after which the fabric was dried in a tumble dryer. A punch press was used to cut ⅝ inch denim disks from IndiAge® 2XL pretreated denim legs. Each denim disk is pre read with a Chroma Meter CR-200 by Minolta in order to determine the CIE L*a*b* values of both the front and backside of the fabric disk.
One denim disk is placed in each well of two duplicate 12 well micro-titer plates. Each well received C. unicolor laccase (20 uL of 1/20 dilution, approx. 20 ppm), mediator (200, 100, 50 or 20 uL of a 20 mM stock solution in methanol) and 50 mM potassium phosphate buffer, pH 6 for a total volume of 2 mL/well. The mediators were methyl syringate (MS), 4-cyano-2,6-dimethoxyphenol (SN) and 3,4,5-trimethoxyphenol (TMP). The plates were sealed and incubated at 50° C. for 2 hours at 150 rpm in a standard incubator. Following this period, the swatches were removed from the plates and carefully placed on a filter paper in a Buchner funnel and washed with copious amounts of water, followed by drying of the residual water under high vacuum overnight. The swatches were then re-read with the chromometer in order to determine the CIE L*a*b* values of both the front and backside of the disk following bleaching. The total color difference (ΔE) is calculated from the difference between the initial and final CIE L*a*b* values according to the formula ΔE=(ΔL^2+Δa^2+Δb^2)^1/2 The total color differences (ΔE) as a function of mediator concentration are plotted in FIGS. 5 and 6.

For experiment [1], the system named is Thielavia sp. laccase (Ecostone LCC10). Nature of the experiment: Bleaching of solubilized indigo, Thielavia sp. laccase with mediators (Example 2). The following applies: for ΔA600 (change in absorbance at 600 nm relative to control): laccase 10 ppm, pH 5, 50° C., 2 hours, n = 2. The procedure: An assay for the bleaching of the solubilized indigo substrate by laccase/mediator combinations was performed in a 96-well microtitre plate as follows
(§1) A saturated solution of indigo in N-methylpyrrolidone (NMP) was prepared by stirring indigo (30 mg) in NMP (10 ml) at room temperature for 5 hours. The NMP solution was diluted 10-fold into an aqueous buffer solution resulting in a blue solution. For example, dilution into 50 mM sodium acetate buffer at pH 5, or 50 mM sodium phosphate buffer at pH 7. Solutions were shaken well immediately before use.
(§2) The assay for the bleaching of the solubilized indigo substrate was performed in a 96-well microtitre plate whereby each well received the soluble indigo solution in 50 mM sodium acetate buffer at pH 5 (180 uL), laccase (10 ppm enzyme) and mediator solution (from a 20 mM stock solution in methanol). The total volume of each well was adjusted to 200 uL with deionzed water. A control containing laccase only was run in duplicate. The plate was sealed and incubated at 50° C. for 2 hours at 800 rpm on a heated agitator (Thermomixer, Eppendorf). Following this period, the plates were unsealed and a solution of ascorbic acid (20 uL of a 10% aqueous solution) added to each well in order to reduce the oxidized forms of the mediators. The extent of indigo bleaching was then assessed by determining the absorbance for each well at 600 nm using a microtitre plate reader. The lower the absorbance reading, the greater the extent of indigo bleaching.

In experiment [2] the test system is Thielavia laccase (Ecostone LCC10). Nature of the experiment: Soluble indigo bleaching at two pH values, Thielavia laccase (Example 3). On the procedure:
as §1, §2
(§3) Laccases derived from Myceliophtora (Denilite® II, Novozymes, Bagsvaerd, Denmark), Thielavia (Ecostone LCC10, AB enzymes, Darmstadt, Germany) and Cerrena sp. were assessed for their ability to bleach solubilized indigo in conjunction with low molecular weight mediators at two pH values.
(§4) Bleaching of solubilized indigo in 96-well microtitre plates was performed as described in Example 1, using 3 different laccases at pH values of 5 and 7.

The test system of experiment [3] is Myceliophtora laccase (Denilite II). The experiment can be described thus: Soluble indigo bleaching at two pH values, Myceliophtora laccase (Example 3). The procedure:
as §1, §2, §3, §4

In a further experiment the test system is Cerrena sp. laccase. The experiment can be described thus: Soluble indigo bleaching at two pH values, Cerrena sp. laccase (Example 3). The procedure:
as §1, §2, §3, §4

The mark [4] stands for this setting: mediator 200 uM, laccase 20 ppm, pH 6, 50° C., 2 hours.
The mark [5] stands for this setting: mediator 500 uM, laccase 20 ppm, pH 6, 50° C., 2 hours.
The mark [6] stands for this setting: mediator 1000 uM, laccase 20 ppm, pH 6, 50° C., 2 hours.
Where [7] appears, read: mediator 50 mM Concentration (head).
Setting [8] is: mediator 500 mM Concentration (head).
Setting [9] is: lower mediator concentration of 50 uM.

Structures are written as SMILES. Several values for one entry are separate records, joined by “and”; a condition that tells them apart may be missing. Equal values may be shown once.

As to `COc1cc(O)cc(OC)c1OC` [TMP, 3,4,5-trimethoxyphenol, reference compound], in the experiment on C. unicolor laccase (C. unicolor laccase 20 ppm, 200-2000 uM mediator), the “effectiveness as mediator for denim swatch bleaching” value is reported as “not an effective mediator”. Besides, in the experiment on C. unicolor laccase (setting [4]), the “ΔE (total color difference) Denim swatch Backside” value is 0.35 and 0.57; the “ΔE (total color difference) Denim swatch Frontside” value is 0.96 and 0.77; the “Δa Denim swatch Frontside” value was 0.29 and 0.33. Further, in the experiment on C. unicolor laccase (setting [5]), the “ΔE (total color difference) Denim swatch Backside” value was 0.51 and 0.30; the “ΔE (total color difference) Denim swatch Frontside” value is 0.64 and 0.63; the “ΔL Denim swatch Frontside” value is on record as −0.61. Further, in the experiment on C. unicolor laccase (setting [6]), the “ΔE (total color difference) Denim swatch Backside” value was 0.45 and 0.51; the “ΔE (total color difference) Denim swatch Frontside” value was 0.51 and 0.46; the “Δa Denim swatch Backside” value is 0.22 and 0.12. The “ΔE (total color difference) Denim swatch Backside” value with C. unicolor laccase (mediator 2000 uM, laccase 20 ppm, pH 6, 50° C., 2 hours) is recorded as 0.34.

As for `O=C(O)CCCN1c2ccccc2Sc2ccccc21` [PTP, 10-(carboxypropyl)-phenothiazine], the entries for the “ΔA600 (change in absorbance at 600 nm relative to control)” value in experiment [1] (setting [7]) and in experiment [1] (setting [8]) were 0.132 and 0.044, respectively.

Consider `COc1cc(C(=O)O)cc(OC)c1O` [Syringic acid, syringic acid], for which, in experiment [1] (setting [9]), the “effectiveness as mediator for indigo bleaching” value is “no more effectively than the control condition”. Moreover, the “ΔA600 (change in absorbance at 600 nm relative to control)” value in experiment [1] (setting [7]) worked out at 0.005; in experiment [1] (setting [8]) it was 0.024.

On to `COc1cc(C=O)cc(OC)c1O` [Syringaldehyde, syringaldehyde], for which the figures for the “ΔA600 (change in absorbance at 600 nm relative to control)” value in experiment [1] (setting [7]) and in experiment [1] (setting [8]) were 0.092 and 0.132, respectively.

Regarding `CNC(=O)c1cc(OC)c(O)c(OC)c1` [MSA, 4-(N-methylcarboxamido)-2,6-dimethoxyphenol], the results for the “ΔA600 (change in absorbance at 600 nm relative to control)” value in experiment [1] (setting [7]) and in experiment [1] (setting [8]) were 0.103 and 0.181, respectively.

Take `COC(=O)c1cc(OC)c(OC(C)=O)c(OC)c1` [AMS, methyl 4-acetyl syringate]: the “ΔA600 Thielavia” value in experiment [2] (pH 5, mediator 250 uM) is 0.100; in experiment [2] (pH 7, mediator 250 uM), 0.087. For the same molecule, the “ΔA600 Myceliophtora” value in experiment [3] (pH 5, mediator 250 uM) turned out to be 0.117; in experiment [3] (pH 7, mediator 250 uM), 0.078. Moreover, the “ΔA600 Cerrena” value with Cerrena sp. laccase (pH 5, mediator 250 uM) is reported as 0.028; with Cerrena sp. laccase (pH 7, mediator 250 uM), 0.077.

As to `CCn1c(=NN=c2sc3cc(S(=O)(=O)O)ccc3n2CC)sc2cc(S(=O)(=O)O)ccc21` [ABTS], the “effectiveness as mediator for indigo bleaching” value in experiment [1] (setting [9]) and in experiment [1] (mediator concentration of 500 uM) was “most effective mediator” each time. Moreover, the entries for the “ΔA600 (change in absorbance at 600 nm relative to control)” value in experiment [1] (setting [7]) and in experiment [1] (setting [8]) were 0.174 and 0.235, respectively. Further, the “ΔA600 Thielavia” value in experiment [2] (pH 5, mediator 250 uM) worked out at 0.234; in experiment [2] (pH 7, mediator 250 uM), 0.145. Moreover, the “ΔA600 Myceliophtora” value in experiment [3] (pH 5, mediator 250 uM) is 0.267; in experiment [3] (pH 7, mediator 250 uM), 0.155. The “ΔA600 Cerrena” value in the experiment with Cerrena sp. laccase (pH 5, mediator 250 uM) was found to be 0.329; with Cerrena sp. laccase (pH 7, mediator 250 uM) it was 0.215.

Regarding `COc1cc(C=CC(=O)O)cc(OC)c1O` (stereo in doubt) [Sinapinic acid, sinapinic acid], the “ΔA600 Thielavia” value in experiment [2] (pH 5, mediator 250 uM) came to 0.068; in experiment [2] (pH 7, mediator 250 uM) it was 0.112. In addition, the “ΔA600 Myceliophtora” value in experiment [3] (pH 5, mediator 250 uM) was determined as 0.157; in experiment [3] (pH 7, mediator 250 uM), 0.204. Further, the “ΔA600 Cerrena” value with Cerrena sp. laccase (pH 5, mediator 250 uM) came out at 0.240; with Cerrena sp. laccase (pH 7, mediator 250 uM), 0.257.
